Drawing on ChEMBL document CHEMBL1138277, “Synthesis and in vivo activity of MK2 and MK2 substrate-selective p38alpha(MAPK) inhibitors in Werner syndrome cells” (Bioorg Med Chem Lett, 2007), this text covers Activity, Ki app and IC50 for three compounds.

Activity calls are given as the source filed them. The calls are words filed in the database; no cut-off is given here.

Assay [1] deals with WS. Kind of assay: Growth inhibition of WS cells above 200 nM. The following applies: Homo sapiens. Type of assay: functional, cell-based.
The target in assay [2] is T1, MAP kinase-activated protein kinase 2 (Homo sapiens, UniProt P49137). Kind of assay: Inhibition of MK2 in human TERT immortalised HCA2 cells assessed as inhibition of anisomycin-induced HSP27 phosphorylation at 2.5 uM by ELISA. Type of assay: cell-based. (In an ELISA, binding on a coated surface is turned into a signal by an enzyme label.)
The species named for assay [3] is Homo sapiens. Kind of assay: Inhibition of JNK.
The target of assay [4] is MAP kinase p38 (Homo sapiens) (UniProt O15264+Q15759+Q16539+P53778). Kind of assay: Inhibition of p38 mediated MK2 activation in HCA2 cells at 25 uM. Type of assay: cell-based.
The test system of assay [5] is HCA2. Briefly: Growth inhibition of HCA2 cells above 2.5 uM. The conditions noted are these: Homo sapiens. The assay is classed as functional, cell-based.
Assay [6] concerns the target T1, MAP kinase-activated protein kinase 2. Briefly: Inhibition of MK2 in human TERT immortalised HCA2 cells assessed as maximal inhibition of anisomycin-induced HSP27 phosphorylation at 25 uM by ELISA. The assay is classed as cell-based.
Target sequence in this assay (P49137 whole entry, looked up): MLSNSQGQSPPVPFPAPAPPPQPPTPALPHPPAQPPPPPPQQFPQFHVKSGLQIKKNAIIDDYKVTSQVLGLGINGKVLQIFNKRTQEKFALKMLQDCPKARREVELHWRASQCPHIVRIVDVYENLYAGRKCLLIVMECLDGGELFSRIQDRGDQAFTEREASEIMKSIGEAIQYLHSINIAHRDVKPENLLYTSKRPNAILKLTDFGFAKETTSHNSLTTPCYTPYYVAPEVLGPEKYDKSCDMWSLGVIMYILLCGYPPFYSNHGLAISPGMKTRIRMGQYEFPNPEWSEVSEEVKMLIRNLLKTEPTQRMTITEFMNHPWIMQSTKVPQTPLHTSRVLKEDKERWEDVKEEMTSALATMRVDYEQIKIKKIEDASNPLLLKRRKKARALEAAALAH
In assay [7] the test system is WS. Briefly: Growth inhibition of WS cells above 2.5 uM. Type of assay: functional, cell-based. The following applies: Homo sapiens.
For assay [8], the target named is T1, MAP kinase-activated protein kinase 2. Kind of assay: Inhibition of MK2 in human TERT immortalised HCA2 cells assessed as inhibition of anisomycin-induced HSP27 phosphorylation by ELISA. The assay is classed as cell-based.
Target sequence in this assay (P49137 whole entry): as the sequence (P49137 whole entry, looked up) above
The target is the same in assay [9]. Kind of assay: Inhibition of MK2 mediated HSP27 phosphorylation in immortalised WS cells assessed as reduction in F-actin stress fibres. The assay is classed as cell-based.
Target sequence in this assay (P49137 whole entry, looked up): as above
Assay [10] shares this target. Briefly: Inhibition of MK2 mediated HSP27 phosphorylation in immortalised WS cells assessed as reduction in F-actin stress fibres at 25 uM after 6 days. The assay is classed as cell-based.
Target sequence in this assay (P49137 whole entry, looked up): as above

With `O=C(CCCc1ccc(-c2ccccc2F)cc1)Nc1ccc(O)cc1`, in assay [1], the result was Active. The Ki app in [2] was found to be 330 nM. For the same compound, the result in [3] was inactive.
On to `N#Cc1c(N)nc2c(c1N)Cc1cc(O)c(O)cc1O2`, for which the outcome in [4] and in assay [3] was inactive. For the same compound, the result in [5], in assay [2], in assay [6], in assay [7], in assay [9] and in assay [10] was Active. In addition, in assay [8], the IC50 (in general, the point on the concentration scale where inhibition reaches its midpoint) is 2500 nM.
Turning to `C[S+]([O-])c1ccc(-c2nc(-c3ccc(F)cc3)c(-c3ccncc3)[nH]2)cc1` (stereo not drawn), the outcome in assay [9] was Active.
